In patent US11951108B2, “Combination therapy for treating cancer” (Epizyme, Inc., priority 2016, dated 2024):

How the values were obtained:
COV644* = assay: In vitro combination study, ovarian cancer cell line COV644; conditions: COV644*; 7+3 model
OVSAHO = assay: In vitro combination study, ovarian cancer cell line OVSAHO; conditions: 4+3 model
MDA-MB-231 = assay: In vitro combination study, breast cancer cell line MDA-MB-231; conditions: ER/PR −/−, HER2 −, 7 day pre-treatment + 6 day co-treatment
BT474 = assay: In vitro combination study, breast cancer cell line BT474; conditions: ER/PR +/+, HER2 +, 7 day pre-treatment + 6 day co-treatment
BT-20 = assay: In vitro combination study, breast cancer cell line BT-20; conditions: ER/PR −/−, HER2 −, 7 day pre-treatment + 6 day co-treatment
MDA-MB-175VII = assay: In vitro combination study, breast cancer cell line MDA-MB-175VII; conditions: ER/PR +/+, HER2 +, 7 day pre-treatment + 6 day co-treatment
COV362 = assay: In vitro combination study, ovarian cancer cell line COV362; conditions: COV362; 4+3 model
HCC1937 = assay: In vitro combination study, breast cancer cell line HCC1937; conditions: ER/PR −/−, HER2 +, 7 day pre-treatment + 6 day co-treatment
HCC1187 = assay: In vitro combination study, breast cancer cell line HCC1187; conditions: ER/PR −/−, HER2 −, 7 day pre-treatment + 6 day co-treatment
ES-2 = assay: In vitro combination study, ovarian cancer cell line ES-2; conditions: 4+3 model
SUM52PE = assay: In vitro combination study, breast cancer cell line SUM52PE; conditions: ER/PR −/−, HER2 −, 7 day pre-treatment + 6 day co-treatment

CN(Cc1cnc2nc(N)nc(N)c2n1)c1ccc(C(=O)N[C@@H](CCC(=O)O)C(=O)O)cc1 [Methotrexate]
Synergy or antagonism of second agent with tazemetostat (IC50 shift of second agent) (DU4475): A (key: B: Synergy > 4× IC50 shift; Synergy > 2× IC50 shift; No Effect; Antagonism; X: Not Tested) | Synergy or antagonism of second agent with tazemetostat (IC50 shift of second agent) (TOV112D): A (key: B: Synergy > 4× IC50 shift; Synergy > 2× IC50 shift; No Effect; Antagonism; X: Not Tested) | Synergy or antagonism of second agent with tazemetostat (IC50 shift of second agent) (COV644*): A (Antagonism) | Synergy or antagonism of second agent with tazemetostat (IC50 shift of second agent) (OVSAHO): A (Antagonism) | Synergy or antagonism of second agent with tazemetostat (IC50 shift of second agent) (MDA-MB-231): A (Antagonism) | Synergy or antagonism of second agent with tazemetostat (IC50 shift of second agent) (ZR-75-1): A (key: B: Synergy > 4× IC50 shift; Synergy > 2× IC50 shift; No Effect; Antagonism; X: Not Tested) | Synergy or antagonism of second agent with tazemetostat (IC50 shift of second agent) (BT474): A (Antagonism) | Synergy or antagonism of second agent with tazemetostat (IC50 shift of second agent) (COV504): A (key: B: Synergy > 4× IC50 shift; Synergy > 2× IC50 shift; No Effect; Antagonism; X: Not Tested) | Synergy or antagonism of second agent with tazemetostat (IC50 shift of second agent) (SNU840): A (key: B: Synergy > 4× IC50 shift; Synergy > 2× IC50 shift; No Effect; Antagonism; X: Not Tested) | Synergy or antagonism of second agent with tazemetostat (IC50 shift of second agent) (BT-20): C (Synergy > 2× IC50 shift) | Synergy or antagonism of second agent with tazemetostat (IC50 shift of second agent) (OVISE): A (key: B: Synergy > 4× IC50 shift; Synergy > 2× IC50 shift; No Effect; Antagonism; X: Not Tested) | Synergy or antagonism of second agent with tazemetostat (IC50 shift of second agent) (MDA-MB-175VII): A (Antagonism) | Synergy or antagonism of second agent with tazemetostat (IC50 shift of second agent) (COV362): A (Antagonism) | Synergy or antagonism of second agent with tazemetostat (IC50 shift of second agent) (OVMANA): A (key: B: Synergy > 4× IC50 shift; Synergy > 2× IC50 shift; No Effect; Antagonism; X: Not Tested) | Synergy or antagonism of second agent with tazemetostat (IC50 shift of second agent) (HCC1937): A (Antagonism) | Synergy or antagonism of second agent with tazemetostat (IC50 shift of second agent) (HCC1187): A (Antagonism) | Synergy or antagonism of second agent with tazemetostat (IC50 shift of second agent) (HCC1143): A (key: B: Synergy > 4× IC50 shift; Synergy > 2× IC50 shift; No Effect; Antagonism; X: Not Tested) | Synergy or antagonism of second agent with tazemetostat (IC50 shift of second agent) (ES-2): A (Antagonism) | Synergy or antagonism of second agent with tazemetostat (IC50 shift of second agent) (SUM52PE): A (Antagonism)
